{"source": "patent US20160257931A1", "about": "“METHOD FOR CULTURE OF CORNEAL ENDOTHELIAL CELLS, PROCESS FOR PRODUCTION OF CORNEAL ENDOTHELIAL CELL SHEET FOR TRANSPLANTATION PURPOSES, AND CULTURE KIT FOR CORNEAL ENDOTHELIAL CELLS” (CORNEA REGENERATION INSTITUTE CO., LTD., priority 2010, published 2016)", "assay_type_in_all_cases": "cell-based", "key": {"[1]": {"system": "human corneal endothelial cell", "assay": "Primary culture of corneal endothelial cells in the presence of ascorbyl 2-phosphate", "conditions": "for Number of obtained cells in primary culture: Asc-2P(+) 100 μg/ml in basal medium, atelocollagen-coated dish", "procedure": "Sclerocorneal segments prepared from 10 examples obtained from human eyes (from 14 to 69 years old) from Rocky Mountain Lions Eye Bank in a low temperature preservation state in a preservation solution (trade name: Optisol manufactured by Chiron corporation). The segments were 6 to 8 days old after death.\nThe sclerocorneal segments were transferred into a 35 mm petri dish, and the endothelial face was washed with DME medium containing 15% fetal calf serum (FCS) and 2 ng/ml basic fibroblast growth factor (bFGF) (hereinafter to be indicated as the basal medium).\nUsing ultrafine forceps, the corneal endothelium was peeled off in a sheet with the Descemet's membrane from the corneal inner periphery to the center and transferred into a 35 mm petri dish. The Descemet's membrane segment to which the corneal endothelial cells were attached was further cut into small pieces of about 2 mm square on the petri dish, and only the Descemet's slice pieces without attachment of a parenchymal tissue in a cottony form were recovered in a low adsorption centrifugation tube (manufactured by SUMITOMO BAKELITE Co., Ltd.), and incubated in the basal medium containing 0.2% collagenase (trade name: collagenase A, collagenase activity: >0.15 U/mg, manufactured by Roche K.K.) at 37° C., 5% CO2 for 1-3 hr.\nThe collagenase-treated cells were diluted with the basal medium, centrifugal washing (20 g, 2 min) was repeated three times, and the cells floating in the supernatant were removed. The cells were diluted with phosphate buffered saline (PBS), and centrifugal washing (20 g, 2 min) was performed once in the same manner. 0.5% Trypsin/0.2% ethylenediamine tetraacetic acid (EDTA) was added to the precipitated cell mass, and the mixture was incubated at 37° C., 5% CO2 for 5 min. The basal medium was added and the mixture was centrifuged (500 g, 5 min) to give cell pellets. The obtained cell pellets were resuspended in the basal medium containing 100 μg/ml ascorbyl 2-phosphate (manufactured by Wako Pure Chemical Industries, Ltd.) and the comparison basal medium without containing the same. The cells were each seeded on a dish prepared by the following method, and cultured in an incubator at 37° C., 5% CO2 for 2-4 weeks while exchanging the medium every 2-3 days.\n5 mg/ml Atelocollagen (bovine dermis-derived acidic collagen solution, trade name: IAC-50, manufactured by KOKEN CO., LTD) was diluted 100-fold with 10 mM acetic acid, 1 ml thereof was added to a 35 mm dish, left standing at 37° C. for 1 hr, and washed twice with PBS (2 ml) to prepare a dish coated with atelocollagen."}, "[2]": {"system": "human corneal endothelial cell", "assay": "Subculture of corneal endothelial cells (passage stability)", "procedure": "The primary cultured cells (10 donors, 14- to 69-year-old) obtained in the above-mentioned 1 were each subcultured as follows.\nThe primary cultured cells were washed with PBS and dispersed in 0.5% trypsin/0.2% EDTA. The basal medium was added thereto, the mixture was centrifuged (500 g, 5 min), and suspended in the basal medium containing 100 μg/ml ascorbyl 2-phosphate and comparison basal medium without containing the same. The cells were seeded at 1000 cells/cm^2 on a dish coated with atelocollagen, which was prepared in the same manner as in the above-mentioned 1, and cultured at 37° C., 5% CO2. When the cells reached confluence, a similar passage operation was repeated."}, "[3]": {"system": "human corneal endothelial cell", "assay": "Comparison with the conventional culture method on bovine corneal endothelial cell-producing extracellular substrate", "conditions": "FIG. 3", "description": "According to a conventionally-known method (Miyata K, Drake J, Osakabe Y, Hosokawa Y, Hwang D, Soya K, Oshika T, Amano S. Cornea. 2001 20:59-63), a human corneal endothelial cell was isolated and cultured. The method is briefly described in the following. The cornea was transferred into a 35 mm petri dish, and the endothelial face was washed with the basal medium. Using ultrafine forceps, the corneal endothelium was peeled off in a sheet with Descemet's membrane from the corneal inner periphery to the center, and transferred into a 35 mm petri dish. The Descemet's membrane was further cut into small slice pieces of about 2 mm square on the petri dish, and placed with the endothelial surface facing downward on a dish coated with an extracellular substrate produced by corneal endothelial cells of a fetal calf. The dish was carefully moved into an incubator at 37° C., 5% CO2, and cultured for 2-3 weeks while exchanging the medium every 2-3 days.\nIn any passage, more cells were obtained in the ascorbyl 2-phosphate addition group, and the total cell number reached after completion of the three passage operations was higher when cultured in the basal medium containing ascorbyl 2-phosphate."}}, "data": [{"smiles": "O=C1O[C@H]([C@@H](O)CO)C(O)=C1OP(=O)(O)O", "note": "[Asc-2P, ascorbyl 2-phosphate]", "values": [{"measurement": "Number of obtained cells in primary culture", "setting": "[1]; donor No. 1, 27 days of culture", "result": 59, "unit": "×10e4 cells"}, {"measurement": "Number of obtained cells in primary culture", "setting": "[1]; donor No. 2, 21 days of culture", "result": 32, "unit": "×10e4 cells"}, {"measurement": "Number of obtained cells in primary culture", "setting": "[1]; donor No. 3, 21 days of culture", "result": 35, "unit": "×10e4 cells"}, {"measurement": "Number of obtained cells in primary culture", "setting": "[1]; donor No. 4, 22 days of culture", "result": 39, "unit": "×10e4 cells"}, {"measurement": "Number of obtained cells in primary culture", "setting": "[1]; donor No. 5, 26 days of culture", "result": 66, "unit": "×10e4 cells"}, {"measurement": "Number of obtained cells in primary culture", "setting": "[1]; donor No. 6, 22 days of culture", "result": 27, "unit": "×10e4 cells"}, {"measurement": "Number of obtained cells in primary culture", "setting": "[1]; donor No. 7, 26 days of culture", "result": 60, "unit": "×10e4 cells"}, {"measurement": "Number of obtained cells in primary culture", "setting": "[1]; donor No. 8, 23 days of culture", "result": 308, "unit": "×10e4 cells"}, {"measurement": "Number of obtained cells in primary culture", "setting": "[1]; donor No. 9, 24 days of culture", "result": 405, "unit": "×10e4 cells"}, {"measurement": "Number of obtained cells in primary culture", "setting": "[1]; donor No. 10, 29 days of culture", "result": 20, "unit": "×10e4 cells"}, {"measurement": "Number of corneal endothelial cells on completion of the primary culture, versus no addition", "setting": "[1]; all 10 donors (14 to 69 years old), 100 μg/ml", "result": "strikingly increased"}, {"measurement": "Cell form in primary culture", "setting": "[1]; donor Nos. 5 and 7, basal medium containing ascorbyl 2-phosphate", "result": "flagstone-like cell images on the entire face of the culture dish"}, {"measurement": "Number of cells obtained on completion of the subculture, versus no addition", "setting": "[2]; all 10 cases, 100 μg/ml, seeded at 1000 cells/cm^2, repeated subculture", "result": "higher"}, {"measurement": "Number of cells obtained on repeated subculture, addition group versus non-addition group", "setting": "[2]; donor No. 8, FIG. 2 (a), (b)", "result": "higher"}, {"measurement": "Cell form on completion of 6 passages", "setting": "[2]; donor No. 8, FIG. 2 (c)", "result": "maintained a flagstone-like form"}, {"measurement": "Proliferation efficiency versus conventional method", "setting": "[3]", "result": "higher proliferation efficiency"}, {"measurement": "Total cell number reached after completion of the three passage operations, versus conventional method", "setting": "[3]; atelocollagen plus ascorbyl 2-phosphate versus bovine corneal endothelial cell-producing extracellular substrate", "result": "higher"}]}]}
